Test results: the supplement of paper PMC10307832

Assays:
Assay in all cases: relative viability (nuclei count vs DMSO), 5 days (fraction); higher = more cells survive
KIN001-266 + Pemetrexed = compound: CCN1CCC(CC1)N2C=C(N=N2)CNC3=CC4=C(C(=CN=C4C(=C3)Cl)C#N)NC5=CC(=C(C=C5)F)Cl [KIN001-266] + Nc1nc2[nH]cc(CCc3ccc(C(=O)N[C@@H](CCC(=O)O)C(=O)O)cc3)c2c(=O)[nH]1 [Pemetrexed] (partner 0.2 µM)
How it was run: (§1)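 Each reported value is a median over duplicate plates. It expresses relative viability: treated-well nuclei count divided by vehicle-well nuclei count. Lung cancer cell lines in 1536-well plates were dosed by pin tool a day after seeding, alone with one drug or with a fixed anchor-drug dose plus five library-drug doses (not always all listed) in √10 steps, and nuclei were counted after 5 days.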

KIN001-266 + OSI-027 = compound: CCN1CCC(CC1)N2C=C(N=N2)CNC3=CC4=C(C(=CN=C4C(=C3)Cl)C#N)NC5=CC(=C(C=C5)F)Cl [KIN001-266] + COc1cccc2cc(-c3nc([C@H]4CC[C@H](C(=O)O)CC4)n4ncnc(N)c34)[nH]c12 [OSI-027] (partner 0.5 µM)
How it was run: as §1

KIN001-266 + Foretinib = compound: CCN1CCC(CC1)N2C=C(N=N2)CNC3=CC4=C(C(=CN=C4C(=C3)Cl)C#N)NC5=CC(=C(C=C5)F)Cl [KIN001-266] + COc1cc2c(Oc3ccc(NC(=O)C4(C(=O)Nc5ccc(F)cc5)CC4)cc3F)ccnc2cc1OCCCN1CCOCC1 [Foretinib] (partner 0.25 µM)
How it was run: as §1

KIN001-266 + AZD7762 = compound: CCN1CCC(CC1)N2C=C(N=N2)CNC3=CC4=C(C(=CN=C4C(=C3)Cl)C#N)NC5=CC(=C(C=C5)F)Cl [KIN001-266] + NC(=O)Nc1cc(-c2cccc(F)c2)sc1C(=O)N[C@H]1CCCNC1 [AZD7762] (partner 0.2 µM)
How it was run: as §1

Cell Line | relative viability (KIN001-266 + Pemetrexed; first compound 0.08 µM) | relative viability (KIN001-266 + Pemetrexed; first compound 0.253 µM) | relative viability (KIN001-266 + Pemetrexed; first compound 0.8 µM) | relative viability (KIN001-266 + Pemetrexed; first compound 2.53 µM) | relative viability (KIN001-266 + Pemetrexed; first compound 8 µM) | relative viability (KIN001-266 + OSI-027; first compound 0.08 µM) | relative viability (KIN001-266 + OSI-027; first compound 0.253 µM) | relative viability (KIN001-266 + OSI-027; first compound 0.8 µM) | relative viability (KIN001-266 + OSI-027; first compound 2.53 µM) | relative viability (KIN001-266 + OSI-027; first compound 8 µM) | relative viability (KIN001-266 + Foretinib; first compound 0.08 µM) | relative viability (KIN001-266 + Foretinib; first compound 0.253 µM) | relative viability (KIN001-266 + Foretinib; first compound 0.8 µM) | relative viability (KIN001-266 + Foretinib; first compound 2.53 µM) | relative viability (KIN001-266 + Foretinib; first compound 8 µM) | relative viability (KIN001-266 + AZD7762; first compound 0.08 µM) | relative viability (KIN001-266 + AZD7762; first compound 0.253 µM) | relative viability (KIN001-266 + AZD7762; first compound 0.8 µM) | relative viability (KIN001-266 + AZD7762; first compound 2.53 µM) | relative viability (KIN001-266 + AZD7762; first compound 8 µM)
COR-L 105 | 1.13 | 1.06 | 0.883 | 1.11 | 1.07 | 0.683 | 0.822 | 0.66 | 0.645 | 0.576 | 0.795 | 1.09 | 0.92 | 0.915 | 0.758 | – | – | – | – | –
LK-2 | 0.275 | 0.237 | 0.211 | 0.158 | 0.273 | 0.215 | 0.187 | 0.199 | 0.168 | 0.222 | 1.12 | 1.31 | 1.2 | 1.03 | 1.28 | 0.505 | 0.292 | 0.19 | 0.143 | 0.219
NCI-H727 | – | – | – | – | – | 0.646 | 0.573 | 0.593 | 0.541 | 0.527 | 0.883 | 0.855 | 0.821 | 0.888 | 0.649 | 0.514 | 0.554 | 0.518 | 0.494 | 0.649
RERF-LC-KJ | 0.475 | 0.507 | 0.475 | 0.499 | 0.467 | 0.645 | 0.614 | 0.519 | 0.498 | 0.351 | 0.882 | 0.873 | 0.837 | 0.837 | 0.757 | 0.984 | 0.876 | 0.809 | 0.768 | 0.947
NCI-H2023 | 0.233 | 0.192 | 0.296 | 0.221 | 0.201 | 0.449 | 0.437 | 0.379 | 0.368 | 0.241 | 0.837 | 0.959 | 1.02 | 0.919 | 0.556 | – | – | – | – | –
NCI-H322M | 0.598 | 0.611 | 0.628 | 0.461 | 0.666 | 0.56 | 0.598 | 0.593 | 0.458 | 0.579 | 0.942 | 0.96 | 1.03 | 0.962 | 0.864 | 0.63 | 0.64 | 0.612 | 0.451 | 0.544
NCI-H1666 | 0.861 | 0.857 | 0.881 | 0.773 | 0.856 | 0.838 | 0.879 | 0.88 | 0.849 | 0.802 | 0.954 | 0.95 | 0.938 | 0.92 | 0.892 | 0.921 | 0.799 | 0.744 | 0.826 | 0.767
NCI-H1648 | 0.641 | 0.791 | 0.66 | 0.626 | 0.758 | 0.28 | 0.256 | 0.273 | 0.257 | 0.273 | – | – | – | – | – | 0.721 | 0.713 | 0.518 | 0.572 | 0.669
NCI-H2087 | 0.646 | 0.716 | 0.637 | 0.581 | 0.587 | 0.823 | 0.65 | 0.599 | 0.458 | 0.486 | 1.22 | 1.17 | 1.09 | 1.15 | 0.962 | 1.28 | 1.37 | 1.51 | 1.25 | 0.771
LU99A | 0.168 | 0.172 | 0.124 | 0.182 | 0.217 | 0.285 | 0.303 | 0.301 | 0.269 | 0.29 | 0.84 | 0.842 | 0.754 | 0.735 | 0.535 | 0.367 | 0.384 | 0.299 | 0.257 | 0.272
HCC-366 | 0.207 | 0.157 | 0.144 | 0.184 | 0.24 | 1.14 | 0.977 | 0.936 | 0.826 | 0.412 | 0.961 | 0.955 | 0.916 | 0.905 | 0.851 | 0.552 | 0.361 | 0.175 | 0.26 | 0.175
EKVX | 0.295 | 0.432 | 0.406 | 0.391 | 0.375 | 0.702 | 0.706 | 0.683 | 0.685 | 0.52 | 0.858 | 0.744 | 0.642 | 0.781 | 0.624 | 0.706 | 0.824 | 0.728 | 0.667 | 0.657
NCI-H522 | 1.06 | 1.01 | 1.01 | 1.06 | 0.932 | 0.879 | 0.74 | 0.677 | 0.659 | 0.659 | – | – | – | – | – | 0.951 | 0.85 | 0.786 | 0.822 | 0.79
NCI-H1755 | 0.394 | 0.459 | 0.334 | 0.407 | 0.433 | 0.74 | 0.739 | 0.679 | 0.723 | 0.651 | 0.96 | 0.913 | 0.894 | 0.862 | 0.83 | 0.408 | 0.492 | 0.425 | 0.452 | 0.43
NCI-H647 | 0.195 | 0.216 | 0.181 | 0.158 | 0.198 | 0.669 | 0.691 | 0.577 | 0.857 | 0.544 | 1.22 | 1.22 | 1.36 | 1.16 | 0.97 | 0.432 | 0.366 | 0.568 | 0.431 | 0.434
LC-2-ad | 0.288 | 0.301 | 0.272 | 0.271 | 0.275 | 0.844 | 0.94 | 0.825 | 0.776 | 0.77 | 0.964 | 1 | 0.904 | 0.972 | 0.787 | 0.8 | 0.867 | 0.777 | 0.863 | 0.636
NCI-H1793 | 0.895 | 0.925 | – | 0.771 | 0.621 | 0.332 | 0.254 | 0.231 | 0.258 | 0.204 | 0.598 | 0.812 | 0.718 | 0.883 | 0.705 | 0.482 | 0.541 | – | 0.276 | 0.376
